EP4775577A1, “RAS INHIBITOR” (Tyligand Bioscience (Shanghai) Limited, priority 2023, dated 2025)
Like-named read-outs stand apart in the source and are kept apart here.

Tests used:
[1] = tested on: KRAS G12D mutant AGS cells; test: Proliferation inhibition of AGS cells, CellTiter-Glo assay; type: cell-based, human; conditions: 3 days, CTG, read-out: AGS IC50/nM
Summary of the method: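 AGS cells at 1500 cells/well in F12K + 10% FBS were exposed for 3 days at 37°C to nine 3-fold dilutions from 10 µM top concentration, in duplicate. Viability read by CellTiter-Glo luminescence; IC50 (nM) from dose-response-inhibition fitting.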

Pharmacokinetics in mice = conditions: mouse, po, 20 mg/kg
Method: Male CD-1 mice, aged 6-8 weeks, were purchased from Zhejiang Vital River Laboratory Animal Co., Ltd.
For the PO administration group, compounds were formulated in 0.5% Tween 80 and 99.5% (0.5%MC (400cp)) vehicle or 0.5%MC (400cp) vehicle to a final concentration of 1 mg/mL or 2 mg/mL for each compound. The drug formulation was administered to CD-1 mice via gavage at a dose of 10 mL/kg. Blood samples were collected from the submandibular vein or other suitable means at 15 min, 30 min, 1 h, 2 h, 4 h, 6 h, 8 h, and 24 h after administration. The blood samples were centrifuged at low temperature for 5 minutes, and the plasma was collected and stored at -80°C for analysis.
10 µL of plasma sample was taken, 200 µL of methanol containing an internal standard as a precipitant was added to precipitate plasma proteins, the compounds to be tested in the plasma was extracted, centrifuged at low temperature, and 10 µL of the supernatant was injected. The drug concentration in blood plasma was analyzed by LC-MS/MS. The pharmacokinetic parameters were calculated using Winnonlin based on the blood drug concentration data at different time points.

[2] = tested on: KRAS G12V mutant NCI-H727 cells; test: Proliferation inhibition of NCI-H727 cells, 3D CellTiter-Glo assay (Method B); type: cell-based, human; conditions: Method B, 3D culture with 0.65% methylcellulose, 5 days, CTG, read-out: NCI-H727 IC50/nM
Summary of the method: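 Cells grown in 3D medium (RPMI-1640, 10% FBS, 0.65% methylcellulose) overnight, then treated 5 days at 37 °C, 5% CO2 with 9 threefold dilutions from 10 µM top working concentration, duplicate wells. CellTiter-Glo luminescence read; IC50 (nM) fitted by dose-response-inhibition equation.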

[3] = tested on: KRAS G12S mutant A549 cells; test: Proliferation inhibition of A549 cells, 3D CellTiter-Glo assay; type: cell-based; conditions: Homo sapiens, A549, 120 h, read-out: A549 IC50/nM
Method: A549 cells (Nanjing Kebai Biotechnology Co., Ltd., catalog number CBP60084, adherent, culture medium (F12K Nutrient Mixture+10%FBS (GIBCO, Cat#10091-148) at 37°C, 5%CO2, and 95% humidity.
3D Cell Viability Assay: Cells in the logarithmic growth phase were harvested and counted using a platelet counter. Cell viability was assessed using the trypan blue exclusion method to ensure a viability of over 90%. The 3D cell culture medium was prepared by adding 1% MC (methylcellulose, Sigma, Cat#M0512) F-12K medium and 10% FBS. The cell concentration was adjusted to approximately 7407 cells/mL using the 3D medium, and the methylcellulose (MC) content was set to 0.65%. Then, 135 µL of cell suspension was added to each 96-well clear, flat-bottomed, black-walled plate (Greiner, Cat#655096). The cells in the 96-well plates were cultured overnight at 37°C with 5% CO2.
Drug preparation for IC50 assay: A 10-fold drug solution was prepared using culture medium. […] of the drug solution was added to each well of a 96-well plate seeded with cells to achieve a working concentration of up to 10 µM, with a 3× dilution, and 9 concentrations. 2 replicate wells for each drug concentration were set. The cells in the drug-treated 96-well plates were cultured at 37°C and 5% CO^2 for additional5 days, then CTG assay (CellTiter-Glo® Luminescent Cell Viability Assay (Promega, Cat#G7573)) were performed.
The cell plate was equilibrated to room temperature for 30 minutes and the CTG reagent was thawed. 75 µL of CTG solution was added to each well for detection, and the plate was shaken on an orbital shaker for 5 minutes to lyse the cells. The cell plate was placed at room temperature for 25 minutes to stabilize the cryo-luminescence signal and the cryo-luminescence value was read (EnVision® multi-plate reader, PerkinElmer#2105).
Data was analyzed using GraphPad Prism software. The dose-response-inhibition equation was used to fit the data to obtain the dose-response curve, and the IC50 value (nM) was calculated accordingly. [formula]

## CCN1CC/C(=C\F)[C@](C)(COc2nc(N3Cc4cc(C(=O)N(C)C)nn4CC[C@@H]3C)c3cc(Cl)c(-c4c(F)ccc5sc(N)c(C#N)c45)c(F)c3n2)C1 (atropisomer, axis not shown) [Example 246A]
[1]; Homo sapiens, AGS, 72 h
  IC50: < 1.5 nM
Pharmacokinetics in mice; plasma
  AUC(0-t) at 8 h: 1040 ng·h/mL
[2]; Homo sapiens, NCI-H727, 120 h
  IC50: < 1.5 nM

## [2H]C([2H])([2H])N(C(=O)c1nn2c(c1COC)CN(c1nc(OC([2H])([2H])[C@]3(C)CN(CC)CC/C3=C\F)nc3c(F)c(-c4c(F)ccc5sc(N)c(C#N)c45)c(Cl)cc13)[C@@H](C)CC2)C([2H])([2H])[2H] (single isomer, unassigned) [Example 235A]
[1]; Homo sapiens, AGS, 72 h
  IC50: < 1.5 nM
Pharmacokinetics in mice; plasma
  AUC(0-t) at 8 h: 2990 ng·h/mL
[2]; Homo sapiens, NCI-H727, 120 h
  IC50: < 1.5 nM

## CN1CC/C(=C\F)[C@](C)(COc2nc(N3CCCn4nc(C(=O)N(C)C)cc4C3)c3cc(Cl)c(-c4c(F)ccc5sc(N)c(C#N)c45)c(F)c3n2)C1 (atropisomer, axis not shown; (Ra)) [Example 93A, (Ra)-5-(7-(2-amino-3-cyano-5-fluorobenzo[b]thiophene-4-yl)-6-chloro-8-fluoro-2-(((S,E)-4-(fluoromethylene)-1,3-dimethylpiperidine-3-yl)methoxy)quinazoline-4-yl)-N,N-dimethyl-5,6,7,8-tetrahydro-4H-pyrazolo[1,5-a][1,4]diazepine-2-formamide·formate]
[1]
  IC50: < 1.5 nM
[2]
  IC50: 4.1 nM
[3]
  IC50: 32.6 nM

## CN1CC/C(=C\F)[C@](C)(COc2nc(N3CCCn4nc(C(=O)N(C)C)c(C#N)c4C3)c3cc(C(F)(F)F)c(-c4c(F)ccc5sc(N)c(C#N)c45)c(F)c3n2)C1 [Example 150]
[1]; Homo sapiens, AGS, 72 h
  IC50: < 1.5 nM
[2]; Homo sapiens, NCI-H727, 120 h
  IC50: < 1.5 nM
[3]
  IC50: 40.3 nM

## [2H]C([2H])([2H])C([2H])([2H])N1CC/C(=C\F)[C@](C)(COc2nc(N3Cc4c(COC)c(C(=O)N(C)C)nn4CC[C@@H]3C)c3cc(Cl)c(-c4c(F)ccc5sc(N)c(C#N)c45)c(F)c3n2)C1 (atropisomer, axis not shown) [Example 243A]
[1]; Homo sapiens, AGS, 72 h
  IC50: < 1.5 nM
Pharmacokinetics in mice; plasma
  AUC(0-t) at 8 h: 9960 ng·h/mL
[2]; Homo sapiens, NCI-H727, 120 h
  IC50: < 1.5 nM

## [2H]C([2H])([2H])C([2H])([2H])N1CC/C(=C\F)[C@](C)(COc2nc(N3Cc4c(COC)c(C(=O)N(C)C)nn4CC[C@@H]3C)c3cc(Cl)c(-c4c(F)ccc5sc(N)c(C#N)c45)c(C)c3n2)C1 (atropisomer, axis not shown) [Example 249A]
[1]; Homo sapiens, AGS, 72 h
  IC50: 2.3 nM
Pharmacokinetics in mice; in vivo
  AUC(0-t) at 8 h: 5360 ng·h/mL
[2]; Homo sapiens, NCI-H727, 120 h
  IC50: < 1.5 nM

## [2H]C([2H])([2H])N1CC[C@H](C(F)F)[C@](C)(COc2nc(N3Cc4cc(C(=O)N(C)C)nn4CC[C@@H]3C)c3cc(CC)c(-c4c(F)ccc5sc(N)c(C#N)c45)c(F)c3n2)C1 (single isomer, unassigned) [Example 174A]
[1]; Homo sapiens, AGS, 72 h
  IC50: < 1.5 nM
[2]; Homo sapiens, NCI-H727, 120 h
  IC50: 2.5 nM
[3]
  IC50: 51.9 nM

## CCc1cc2c(N3Cc4cc(C(=O)N(C)C)nn4CC[C@@H]3C)nc(OC[C@]3(C)CN(CC)CC[C@@H]3C(F)F)nc2c(F)c1-c1c(F)ccc2sc(N)c(C#N)c12 (single isomer, unassigned) [Example 176A]
[1]; Homo sapiens, AGS, 72 h
  IC50: < 1.5 nM
[2]; Homo sapiens, NCI-H727, 120 h
  IC50: < 1.5 nM
[3]
  IC50: 42.6 nM

## CCN1CCC(C(F)F)C(C)(COc2nc(N3Cc4c(COC)c(C(=O)N(C)C)nn4CCC3C)c3cc(Cl)c(-c4c(F)ccc5sc(N)c(C#N)c45)c(F)c3n2)C1 (stereo not drawn) [Example 251A]
[1]; Homo sapiens, AGS, 72 h
  IC50: 1.8 nM
Pharmacokinetics in mice; plasma
  AUC(0-t) at 8 h: 1960 ng·h/mL
[2]; Homo sapiens, NCI-H727, 120 h
  IC50: < 1.5 nM

## CC[C@H]1CCn2nc(C(=O)N(C)C)c(COC)c2CN1c1nc(OC[C@]2(C)CN(CC)CC/C2=C\F)nc2c(F)c(-c3c(F)ccc4sc(N)c(C#N)c34)c(Cl)cc12 (single isomer, unassigned) [Example 240A]
[1]; Homo sapiens, AGS, 72 h
  IC50: 2.5 nM
Pharmacokinetics in mice; plasma
  AUC(0-t) at 8 h: 2920 ng·h/mL
[2]; Homo sapiens, NCI-H727, 120 h
  IC50: < 1.5 nM

## C[C@H]1CCn2nc(C(=O)N(C)C)cc2CN1c1nc(OC[C@]2(C)CN(C)CC/C2=C\F)nc2c(F)c(-c3c(F)ccc4sc(N)c(C#N)c34)c(C3CC3)cc12 (single isomer, unassigned) [Example 162A]
[1]; Homo sapiens, AGS, 72 h
  IC50: < 1.5 nM
[2]; Homo sapiens, NCI-H727, 120 h
  IC50: 2.1 nM
[3]
  IC50: 82.4 nM

## CN1CC/C(=C\F)[C@](C)(COc2nc(N3CCCn4nc(C(=O)N(C)C)c(Cl)c4C3)c3cc(C(F)(F)F)c(-c4c(F)ccc5sc(N)c(C#N)c45)c(F)c3n2)C1 [Example 160]
[1]; Homo sapiens, AGS, 72 h
  IC50: < 1.5 nM
[2]; Homo sapiens, NCI-H727, 120 h
  IC50: < 1.5 nM
[3]
  IC50: 11.1 nM
